Assay results: patent US20260234124A1, “Substituted Pyrazolyl-Pyridinyl Compounds as Ligand Directed Degraders of IRAK3” (Celgene Corporation, priority 2022, published 2026)

Molecular target: T1, IRAK3-ePL (Homo sapiens, UniProt Q9Y616)
T1 construct: expressed in transfected cells; host or cells: 293T CRBN OE/GSPT1 G575N KI cells, lentiviral transduction, puromycin selection
Assay: IRAK3-ePL overexpressing degradation assay
Type: cell-based
Details: IRAK3-ePL Lenti-X 293T CRBN/GSPT1 G575N cells, overnight incubation, top dose 10 μM; for Dmax: HEK-293T, maximum percentage loss of target protein; for DC50: read-out: IRAK3 ePL degradation EC50
Description: Example B1. IRAK3-ePL Overexpressing Degradation Assay
Stable cell lines were generated by the following protocol. 3×10^5 Lenti-X 293T cells (Clonetech) were plated in 0.8 mL of media in a 12-well plate and incubated overnight at 37° C./5% CO2. Packaging plasmid (0.4 μg, pMD), envelope plasmid (0.4 μg, pSP), and lentiviral transfer IRAK3-ePL plasmid (0.8 μg, IRAK3 sequence NM_007199.3) were mixed in 0.1 mL of Opti-MEM and incubated for 5 min. Simultaneously, 2.4 μL of Lipofectamine 2000 (Invitrogen) was added to 0.1 mL of Opti-MEM (Gibco) and incubated for 5 min. The plasmid DNA and lipofectamine were combined and the mixture was allowed to incubate for 20 min. DNA:Lipofectamine Opti-MEM mixtures were then added to previously plated cells dropwise and the cells were incubated for ~16 h at 37° C./5% CO2. Following incubation, the media was removed and 1.2 mL of fresh media was added per well. Lenti-X 293T cells were incubated for ~30 h at 37° C./5% CO2. […] Following incubation, media was removed from the Lenti-X 293T wells and passed through a […]. Part of the viral supernatant was used to transduce cells and the rest was stored at −80° C. Viruses were then added individually (0.5 mL virus) to each well of the 293T^CRBN OE/GSPT1 G575N KI cells, followed by addition of polybrene (10 mg/mL Millipore) to each well at a final concentration of 5.0 μg/mL. Cells were incubated for ~24 h at 37° C./5% CO2. After aspirating media off plates, cells were washed with DPBS, trypsinized and plated in a 10 cm dish in 15 mL of media and 1 μg/mL puromycin. Following incubation of cells for ~72 h at 37° C./5% CO2, media was aspirated off plates, and cells were washed with DPBS and trypsinized. The cells were plated in a 15 cm dish in 40 mL of media with 1.0 μg/mL Puromycin (Gibco) and incubated for ~72 h at 37° C./5% CO2. Following incubation, media was removed and cells were washed with DPBS and trypsinized. The majority of cells were resuspended in Invitrogen freezing media and stored away (~6-8×10^6 cells/vial).
IRAK3-ePL cellular dose response curve degradation assays were performed by the following protocol. Compounds to be tested were dispensed into a white 384-well tissue-culture treated plate using an acoustic liquid handler. Dilutions were prepared based on a 25 μL assay volume in duplicate 10 point 3-fold serial dilutions starting with a 10 μM dose. Negative control wells were included, which only contain 0.2% DMSO to calculate 100% signal. Positive control wells containing 30 μM Ataluren (luciferase inhibitor) were included to calculate the background signal level. All wells were backfilled to a final DMSO concentration of 0.2% to ensure DMSO uniformity across wells. IRAK3-ePL expressing cells (IRAK3-ePL Lenti-X 293T^CRBN/GSPT1 G575N) were washed, trypsinized, counted, and resuspended in fresh DMEM (Gibco) to give a cell concentration of 200,000 cells/mL. 25 μL of cells (5,000 cells/well) were dispensed into the wells of the 384-well plate prespotted with compounds in the previous step and incubated overnight at 37° C./5% CO2. Following incubation, the 384-well plate was taken out of the incubator and left at room temperature for 30 min. InCELL hunter reagent was prepared according to manufacturer's instructions (EA reagent, lysis buffer, and substrate reagent in a 1:1:4 ratio, Cat #96-0002, DiscoverX), which was added to the 384-well plate 25 μL per well. Following the incubation of the plate for 1 h at room temperature, the luminescence signal was read using a ViewLux plate reader. Data was processed and analyzed in ActivityBase software. In short, the average luminescence values of the positive control wells were subtracted from the rest of the wells for background correction, and all luminescence values were normalized to the DMSO control wells. The average value of the DMSO control wells was set to equal 100% of the relative IRAK3-ePL protein levels. […]

Structure (SMILES)	Dmax [%]	DC50 [µM]
Cc1ncsc1-c1ccc(CNC(=O)[C@@H]2C[C@@H](O)CN2C(=O)[C@@H](NC(=O)COCCOCCOCCOCCN2CCC(n3cc(-c4cnc(N)c(O[C@H](C)c5c(Cl)ccc(F)c5Cl)c4)cn3)CC2)C(C)(C)C)cc1 [Compound 4, (2S,4R)-1-((S)-17-(4-(4-(6-amino-5-((R)-1-(2,6-dichloro-3-fluorophenyl)ethoxy)pyridin-3-yl)-1H-pyrazol-1-yl)piperidin-1-yl)-2-(tert-butyl)-4-oxo-6,9,12,15-tetraoxa-3-azaheptadecanoyl)-4-hydroxy-N-(4-(4-methylthiazol-5-yl)benzyl)pyrrolidine-2-carboxamide]	26	> 10
C[C@@H](Oc1cc(-c2cnn(C3CCN(CCOCCOCCNC(=O)COc4cccc5c4C(=O)N(C4CCC(=O)NC4=O)C5=O)CC3)c2)cnc1N)c1c(Cl)ccc(F)c1Cl (stereo partly drawn) [Compound 10, N-(2-(2-(2-(4-(4-(6-amino-5-((R)-1-(2,6-dichloro-3-fluorophenyl)ethoxy)pyridin-3-yl)-1H-pyrazol-1-yl)piperidin-1-yl)ethoxy)ethoxy)ethyl)-2-((2-(2,6-dioxopiperidin-3-yl)-1,3-dioxoisoindolin-4-yl)oxy)acetamide]	22	> 10
C[C@@H](Oc1cc(-c2cnn(C3CCN(C4CCC5(CC4)CCN(C(=O)c4ccc6c(c4)C(=O)N(C4CCC(=O)NC4=O)C6)CC5)CC3)c2)cnc1N)c1c(Cl)ccc(F)c1Cl (stereo partly drawn) [Compound 19, 3-(6-(9-(4-(4-(6-amino-5-((R)-1-(2,6-dichloro-3-fluorophenyl)ethoxy)pyridin-3-yl)-1H-pyrazol-1-yl)piperidin-1-yl)-3-azaspiro[5.5]undecane-3-carbonyl)-1-oxoisoindolin-2-yl)piperidine-2,6-dione]	36	> 10
Cc1ncsc1-c1ccc(CNC(=O)[C@@H]2C[C@@H](O)CN2C(=O)[C@@H](NC(=O)COCCOCCOCCOCCOCCOCCOCCN2CCC(n3cc(-c4cnc(N)c(O[C@H](C)c5c(Cl)ccc(F)c5Cl)c4)cn3)CC2)C(C)(C)C)cc1 [Compound 7, (2S,4R)-1-((S)-26-(4-(4-(6-amino-5-((R)-1-(2,6-dichloro-3-fluorophenyl)ethoxy)pyridin-3-yl)-1H-pyrazol-1-yl)piperidin-1-yl)-2-(tert-butyl)-4-oxo-6,9,12,15,18,21,24-heptaoxa-3-azahexacosanoyl)-4-hydroxy-N-(4-(4-methylthiazol-5-yl)benzyl)pyrrolidine-2-carboxamide]	38	> 10
C[C@@H](Oc1cc(-c2cnn(C3CCN(C4CCC5(CC4)CCN(C(=O)c4cccc6c4CN(C4CCC(=O)NC4=O)C6=O)CC5)CC3)c2)cnc1N)c1c(Cl)ccc(F)c1Cl (stereo partly drawn) [Compound 21, 3-(4-(9-(4-(4-(6-amino-5-((R)-1-(2,6-dichloro-3-fluorophenyl)ethoxy)pyridin-3-yl)-1H-pyrazol-1-yl)piperidin-1-yl)-3-azaspiro[5.5]undecane-3-carbonyl)-1-oxoisoindolin-2-yl)piperidine-2,6-dione]	59	0.105
Cc1ncsc1-c1ccc(CNC(=O)[C@@H]2C[C@@H](O)CN2C(=O)[C@@H](NC(=O)COCCOCCOCCOCCOCCOCCN2CCC(n3cc(-c4cnc(N)c(O[C@H](C)c5c(Cl)ccc(F)c5Cl)c4)cn3)CC2)C(C)(C)C)cc1 [Compound 6, (2S,4R)-1-((S)-23-(4-(4-(6-amino-5-((R)-1-(2,6-dichloro-3-fluorophenyl)ethoxy)pyridin-3-yl)-1H-pyrazol-1-yl)piperidin-1-yl)-2-(tert-butyl)-4-oxo-6,9,12,15,18,21-hexaoxa-3-azatricosanoyl)-4-hydroxy-N-(4-(4-methylthiazol-5-yl)benzyl)pyrrolidine-2-carboxamide]	25	> 10
Cc1ncsc1-c1ccc(CNC(=O)[C@@H]2C[C@@H](O)CN2C(=O)[C@@H](NC(=O)CCCN2CCC(n3cc(-c4cnc(N)c(O[C@H](C)c5c(Cl)ccc(F)c5Cl)c4)cn3)CC2)C(C)(C)C)cc1 [Compound 1, (2S,4R)-1-((S)-2-(4-(4-(4-(6-amino-5-((R)-1-(2,6-dichloro-3-fluorophenyl)ethoxy)pyridin-3-yl)-1H-pyrazol-1-yl)piperidin-1-yl)butanamido)-3,3-dimethylbutanoyl)-4-hydroxy-N-(4-(4-methylthiazol-5-yl)benzyl)pyrrolidine-2-carboxamide]	8	> 10
Cc1ncsc1-c1ccc(CNC(=O)[C@@H]2C[C@@H](O)CN2C(=O)[C@@H](NC(=O)COCCOCCN2CCC(n3cc(-c4cnc(N)c(O[C@H](C)c5c(Cl)ccc(F)c5Cl)c4)cn3)CC2)C(C)(C)C)cc1 [Compound 2, (2S,4R)-1-((S)-2-(2-(2-(2-(4-(4-(6-amino-5-((R)-1-(2,6-dichloro-3-fluorophenyl)ethoxy)pyridin-3-yl)-1H-pyrazol-1-yl)piperidin-1-yl)ethoxy)ethoxy)acetamido)-3,3-dimethylbutanoyl)-4-hydroxy-N-(4-(4-methylthiazol-5-yl)benzyl)pyrrolidine-2-carboxamide]	25	> 10

Other lines, results leading:

Dmax [%]	DC50 [µM]	Structure (SMILES)
13	> 10	Cc1ncsc1-c1ccc(CNC(=O)[C@@H]2C[C@@H](O)CN2C(=O)[C@@H](NC(=O)COCCOCCOCCN2CCC(n3cc(-c4cnc(N)c(O[C@H](C)c5c(Cl)ccc(F)c5Cl)c4)cn3)CC2)C(C)(C)C)cc1 [Compound 3, (2S,4R)-1-((S)-14-(4-(4-(6-amino-5-((R)-1-(2,6-dichloro-3-fluorophenyl)ethoxy)pyridin-3-yl)-1H-pyrazol-1-yl)piperidin-1-yl)-2-(tert-butyl)-4-oxo-6,9,12-trioxa-3-azatetradecanoyl)-4-hydroxy-N-(4-(4-methylthiazol-5-yl)benzyl)pyrrolidine-2-carboxamide]
80	0.066	C[C@@H](Oc1cc(-c2cnn(C3CCN(C4CCC5(CC4)CCN(C(=O)c4ccc6c(c4)C(=O)N(C4CCC(=O)NC4=O)C6=O)CC5)CC3)c2)cnc1N)c1c(Cl)ccc(F)c1Cl (stereo partly drawn) [Compound 18, 5-(9-(4-(4-(6-amino-5-((R)-1-(2,6-dichloro-3-fluorophenyl)ethoxy)pyridin-3-yl)-1H-pyrazol-1-yl)piperidin-1-yl)-3-azaspiro[5.5]undecane-3-carbonyl)-2-(2,6-dioxopiperidin-3-yl)isoindoline-1,3-dione]
19	> 10	C[C@@H](Oc1cc(-c2cnn(C3CCN(CCOCCOCCOCCNC(=O)COc4ccc5c(c4)C(=O)N(C4CCC(=O)NC4=O)C5=O)CC3)c2)cnc1N)c1c(Cl)ccc(F)c1Cl (stereo partly drawn) [Compound 16, N-(2-(2-(2-(2-(4-(4-(6-amino-5-((R)-1-(2,6-dichloro-3-fluorophenyl)ethoxy)pyridin-3-yl)-1H-pyrazol-1-yl)piperidin-1-yl)ethoxy)ethoxy)ethoxy)ethyl)-2-((2-(2,6-dioxopiperidin-3-yl)-1,3-dioxoisoindolin-5-yl)oxy)acetamide]
30	> 10	C[C@@H](Oc1cc(-c2cnn(C3CCN(CCOCCOCCOCCOCCNC(=O)COc4cccc5c4C(=O)N(C4CCC(=O)NC4=O)C5=O)CC3)c2)cnc1N)c1c(Cl)ccc(F)c1Cl (stereo partly drawn) [Compound 12, N-(14-(4-(4-(6-amino-5-((R)-1-(2,6-dichloro-3-fluorophenyl)ethoxy)pyridin-3-yl)-1H-pyrazol-1-yl)piperidin-1-yl)-3,6,9,12-tetraoxatetradecyl)-2-((2-(2,6-dioxopiperidin-3-yl)-1,3-dioxoisoindolin-4-yl)oxy)acetamide]
